Measurements reported in publication PMC5218480 (PLoS ONE, 2017).

Test system: MV-4-11 cells
Assay: Gene expression microarray analysis (Affymetrix PrimeView) and GSEA
Type: cell-based, human
Design: RFU PODN (11730768_x_at) / Fold change /veh PODN (11730768_x_at) / RFU LINC00158 (11744669_a_at) / Fold change /veh LINC00158 (11744669_a_at) / RFU DUSP10 (11751237_a_at) / Fold change /veh DUSP10 (11751237_a_at) / RFU ID3 (11757404_x_at) / Fold change /veh ID3 (11757404_x_at) / RFU PLEKHG5 (11737974_s_at) / Fold change /veh PLEKHG5 (11737974_s_at) / RFU LRRC4B (11730491_at) / Fold change /veh LRRC4B (11730491_at) / RFU GIMAP4 (11747438_a_at) / Fold change /veh GIMAP4 (11747438_a_at) / RFU KRT8 (11758183_x_at) / Fold change /veh KRT8 (11758183_x_at) / RFU CNN1 (11734310_a_at) / Fold change /veh CNN1 (11734310_a_at) / RFU VPS37D (11726825_at) / Fold change /veh VPS37D (11726825_at) / RFU C10orf10 (11716522_x_at) / Fold change /veh C10orf10 (11716522_x_at) / RFU KIR2DL2 /// KIR2DL4 /// KIR2DL5A /// KIR2DL5B /// KIR2DS1 /// KIR2DS2 /// KIR2DS3 /// KIR2DS4 /// KIR3DL3 /// KIR3DL3 /// KIR3DS1 (11738374_at) / Fold change /veh KIR2DL2 /// KIR2DL4 /// KIR2DL5A /// KIR2DL5B /// KIR2DS1 /// KIR2DS2 /// KIR2DS3 /// KIR2DS4 /// KIR3DL3 /// KIR3DL3 /// KIR3DS1 (11738374_at) / RFU C1QL1 (11718748_at) / Fold change /veh C1QL1 (11718748_at) / RFU TMPRSS4 (11747572_a_at) / Fold change /veh TMPRSS4 (11747572_a_at) / RFU HAMP (11756126_x_at) / Fold change /veh HAMP (11756126_x_at) / RFU RNFT2 (11725882_a_at) / Fold change /veh RNFT2 (11725882_a_at) / RFU NR4A2 (11747474_a_at) / Fold change /veh NR4A2 (11747474_a_at) / RFU ABCC12 (11746883_a_at) / Fold change /veh ABCC12 (11746883_a_at) / RFU TMEM136 (11760407_x_at) / Fold change /veh TMEM136 (11760407_x_at) / RFU CLDN22 /// WWC2 (11732394_at) / Fold change /veh CLDN22 /// WWC2 (11732394_at) / RFU HLA-DPB1 (11760878_x_at) / Fold change /veh HLA-DPB1 (11760878_x_at) / RFU SPINT1 (11716480_a_at) / Fold change /veh SPINT1 (11716480_a_at) / RFU GAP43 (11754022_s_at) / Fold change /veh GAP43 (11754022_s_at) / RFU A4GNT (11735810_at) / Fold change /veh A4GNT (11735810_at) / RFU PRB3 (11715151_x_at) / Fold change /veh PRB3 (11715151_x_at) / RFU TUBB4B (11761932_at) / Fold change /veh TUBB4B (11761932_at) / RFU CAPN14 (11732068_a_at) / Fold change /veh CAPN14 (11732068_a_at) / RFU TMCC2 (11721928_a_at) / Fold change /veh TMCC2 (11721928_a_at) / RFU IRGQ (11745062_a_at) / Fold change /veh IRGQ (11745062_a_at) / RFU FAM174B (11720279_a_at) / Fold change /veh FAM174B (11720279_a_at) / RFU TMPRSS4 (11748680_a_at) / Fold change /veh TMPRSS4 (11748680_a_at) / RFU FAM212B (11763350_a_at) / Fold change /veh FAM212B (11763350_a_at) / RFU PLEKHG5 (11743358_a_at) / Fold change /veh PLEKHG5 (11743358_a_at) / RFU ZSCAN30 (11745921_a_at) / Fold change /veh ZSCAN30 (11745921_a_at) / RFU CMKLR1 (11741424_a_at) / Fold change /veh CMKLR1 (11741424_a_at) / RFU LOC101060620 /// MAPK8IP1 (11723275_at) / Fold change /veh LOC101060620 /// MAPK8IP1 (11723275_at) / RFU SPTSSB (11747773_x_at) / Fold change /veh SPTSSB (11747773_x_at) / RFU PRSS12 (11739890_at) / Fold change /veh PRSS12 (11739890_at) / RFU BIN1 (11741810_x_at) / Fold change /veh BIN1 (11741810_x_at) / RFU WNT11 (11732464_a_at) / Fold change /veh WNT11 (11732464_a_at) / RFU C10orf10 (11716521_a_at) / Fold change /veh C10orf10 (11716521_a_at) / RFU C5orf56 (11738089_at) / Fold change /veh C5orf56 (11738089_at) / RFU CYB561 (11721691_x_at) / Fold change /veh CYB561 (11721691_x_at) / RFU ANKRD19P (11752326_a_at) / Fold change /veh ANKRD19P (11752326_a_at) / RFU OR2T12 /// OR2T33 /// OR2T8 (11738714_s_at) / Fold change /veh OR2T12 /// OR2T33 /// OR2T8 (11738714_s_at) / RFU VCAN (11748164_a_at) / Fold change /veh VCAN (11748164_a_at) / RFU JSRP1 (11732532_at) / Fold change /veh JSRP1 (11732532_at) / RFU KRTAP10-11 (11738290_x_at) / Fold change /veh KRTAP10-11 (11738290_x_at) / RFU MYO3A (11730013_a_at) / Fold change /veh MYO3A (11730013_a_at) / RFU EBF3 (11725865_a_at) / Fold change /veh EBF3 (11725865_a_at) / RFU CAMK2N1 (11719241_x_at) / Fold change /veh CAMK2N1 (11719241_x_at) / RFU C5orf56 (11738088_a_at) / Fold change /veh C5orf56 (11738088_a_at) / RFU OLFML3 (11715873_a_at) / Fold change /veh OLFML3 (11715873_a_at) / RFU LOC100653217 /// NTM (11731650_a_at) / Fold change /veh LOC100653217 /// NTM (11731650_a_at) / RFU MAPK11 (11762145_a_at) / Fold change /veh MAPK11 (11762145_a_at) / RFU FIZ1 (11724087_x_at) / Fold change /veh FIZ1 (11724087_x_at) / RFU OASL (11726364_x_at) / Fold change /veh OASL (11726364_x_at) / RFU SOX15 (11748057_x_at) / Fold change /veh SOX15 (11748057_x_at) / RFU CD79A (11719716_a_at) / Fold change /veh CD79A (11719716_a_at) / RFU HIST1H1D (11736915_at) / Fold change /veh HIST1H1D (11736915_at) / RFU CASKIN2 (11723855_a_at) / Fold change /veh CASKIN2 (11723855_a_at) / RFU LOC730098 (11760151_x_at) / Fold change /veh LOC730098 (11760151_x_at) / RFU OR4N2 (11742367_at) / Fold change /veh OR4N2 (11742367_at) / RFU PRRT2 (11749266_a_at) / Fold change /veh PRRT2 (11749266_a_at) / RFU SNX32 (11753110_a_at) / Fold change /veh SNX32 (11753110_a_at) / RFU CDHR5 (11726645_a_at) / Fold change /veh CDHR5 (11726645_a_at) / RFU RCAN1 (11760418_a_at) / Fold change /veh RCAN1 (11760418_a_at) / RFU FAM167A (11723789_a_at) / Fold change /veh FAM167A (11723789_a_at) / RFU FAM26E (11764081_at) / Fold change /veh FAM26E (11764081_at) / RFU ISYNA1 (11749810_s_at) / Fold change /veh ISYNA1 (11749810_s_at) / RFU ACY1 (11761880_at) / Fold change /veh ACY1 (11761880_at) / RFU 11764098_at / Fold change /veh 11764098_at / RFU SAMD14 (11745864_x_at) / Fold change /veh SAMD14 (11745864_x_at) / RFU NPB (11741838_a_at) / Fold change /veh NPB (11741838_a_at) / RFU TMPRSS6 (11731388_a_at) / Fold change /veh TMPRSS6 (11731388_a_at) / RFU KRTAP10-2 (11738614_at) / Fold change /veh KRTAP10-2 (11738614_at) / RFU ARHGAP8 /// PRR5-ARHGAP8 (11727945_x_at) / Fold change /veh ARHGAP8 /// PRR5-ARHGAP8 (11727945_x_at) / RFU KRTAP5-7 /// NADSYN1 (11734609_at) / Fold change /veh KRTAP5-7 /// NADSYN1 (11734609_at) / RFU RASL12 (11751679_a_at) / Fold change /veh RASL12 (11751679_a_at) / RFU CDKN2B (11736163_a_at) / Fold change /veh CDKN2B (11736163_a_at) / RFU PRF1 (11729649_at) / Fold change /veh PRF1 (11729649_at) / RFU, ZNF638 /// ZNF638-IT1 / Fold change vs veh, ZNF638 /// ZNF638-IT1 / RFU, PANK3 / Fold change vs veh, PANK3 / RFU, SH3YL1 / Fold change vs veh, SH3YL1 / RFU, ZEB2 / Fold change vs veh, ZEB2 / RFU, NRIP1 / Fold change vs veh, NRIP1 / RFU, PTTG1IP / Fold change vs veh, PTTG1IP / RFU, CAPN2 / Fold change vs veh, CAPN2 / RFU, MED14 / Fold change vs veh, MED14 / RFU, SNORA58 / Fold change vs veh, SNORA58 / RFU, C1orf63 / Fold change vs veh, C1orf63 / RFU, LRRFIP1 / Fold change vs veh, LRRFIP1 / RFU, NDUFAF7 / Fold change vs veh, NDUFAF7 / RFU, SLC12A2 / Fold change vs veh, SLC12A2 / RFU, IBTK / Fold change vs veh, IBTK / RFU, ESF1 / Fold change vs veh, ESF1 / Fold change vs veh, TMEM50B / RFU, TAOK1 / Fold change vs veh, TAOK1 / RFU, ACBD3 / Fold change vs veh, ACBD3 / RFU, TMA16 / Fold change vs veh, TMA16 / RFU, RWDD3 / Fold change vs veh, RWDD3 / RFU, BCAT1 / Fold change vs veh, BCAT1 / RFU, EDEM3 / Fold change vs veh, EDEM3 / RFU, TMEM33 / Fold change vs veh, TMEM33 / RFU, WDR75 / Fold change vs veh, WDR75 / RFU, AHCTF1 / Fold change vs veh, AHCTF1 / RFU, TFRC / Fold change vs veh, TFRC / RFU, ZDHHC17 / Fold change vs veh, ZDHHC17 / RFU, NOM1 / Fold change vs veh, NOM1 / RFU, ARL8B / Fold change vs veh, ARL8B / RFU, ZBTB11 / Fold change vs veh, ZBTB11 / RFU, TAMM41 / Fold change vs veh, TAMM41 / RFU, KIAA1704 /// LOC100996395 / Fold change vs veh, KIAA1704 /// LOC100996395 / RFU, ING1 / Fold change vs veh, ING1 / RFU, TRMT61B / Fold change vs veh, TRMT61B / RFU, FUBP3 / Fold change vs veh, FUBP3 / RFU, TP53 / Fold change vs veh, TP53 / RFU, TNKS2 / Fold change vs veh, TNKS2 / RFU, ZFP14 / Fold change vs veh, ZFP14 / RFU, ACTR2 / Fold change vs veh, ACTR2 / RFU, PPP3R1 / Fold change vs veh, PPP3R1 / RFU, PIK3R1 / Fold change vs veh, PIK3R1 / RFU, HNRNPA1 / Fold change vs veh, HNRNPA1 / RFU, RNF170 / Fold change vs veh, RNF170 / RFU, ZNF28 / Fold change vs veh, ZNF28 / RFU, RNGTT / Fold change vs veh, RNGTT / RFU, OGT / Fold change vs veh, OGT / RFU, BRD1 / Fold change vs veh, BRD1 / RFU, MARS / Fold change vs veh, MARS / RFU, ZNF655 / Fold change vs veh, ZNF655 / RFU, FAHD1 / Fold change vs veh, FAHD1 / RFU, BDP1 / Fold change vs veh, BDP1 / RFU, LRRCC1 / Fold change vs veh, LRRCC1 / RFU, ARID1A / Fold change vs veh, ARID1A / RFU, ZNF146 / Fold change vs veh, ZNF146 / RFU, ZNF330 / Fold change vs veh, ZNF330 / RFU, GPN3 / Fold change vs veh, GPN3 / RFU, C9orf123 / Fold change vs veh, C9orf123 / RFU, N4BP2L2 / Fold change vs veh, N4BP2L2 / RFU, ARFIP1 / Fold change vs veh, ARFIP1 / RFU, FAM179B / Fold change vs veh, FAM179B / RFU, BCL10 / Fold change vs veh, BCL10 / RFU, UHRF1BP1L / Fold change vs veh, UHRF1BP1L / RFU, BET1 / Fold change vs veh, BET1 / RFU, CNOT2 / Fold change vs veh, CNOT2 / RFU, ZNF268 / Fold change vs veh, ZNF268 / Fold change vs veh, ZNF507 / RFU, DGCR2 / Fold change vs veh, DGCR2 / RFU, WDSUB1 / Fold change vs veh, WDSUB1 / Fold change vs veh, HSP90B1 /// MIR3652 / RFU, ADSS / Fold change vs veh, ADSS / RFU, GK / Fold change vs veh, GK / RFU, ZNF148 / Fold change vs veh, ZNF148 / RFU, TAF9 / Fold change vs veh, TAF9 / RFU, SLC1A5 / Fold change vs veh, SLC1A5 / RFU, SLMO2 / Fold change vs veh, SLMO2 / RFU, ABCC4 / Fold change vs veh, ABCC4 / RFU, LOC101060439 /// RAP1B / Fold change vs veh, LOC101060439 /// RAP1B / RFU, RFX7 / Fold change vs veh, RFX7 / RFU, GTPBP10 / Fold change vs veh, GTPBP10 / RFU, CNEP1R1 / Fold change vs veh, CNEP1R1 / RFU, BIVM-ERCC5 /// ERCC5 / Fold change vs veh, BIVM-ERCC5 /// ERCC5 / RFU, ILF3 / Fold change vs veh, ILF3 / RFU 11762660_at / Fold change /veh 11762660_at / RFU VCAN (11757783_s_at) / Fold change /veh VCAN (11757783_s_at) / RFU DDX43 (11728927_at) / Fold change /veh DDX43 (11728927_at) / RFU KRT8 (11758188_x_at) / Fold change /veh KRT8 (11758188_x_at) / RFU NKD1 (11759106_at) / Fold change /veh NKD1 (11759106_at) / RFU SRD5A1 (11742802_a_at) / Fold change /veh SRD5A1 (11742802_a_at) / RFU TPSAB1 /// TPSB2 (11721975_s_at) / Fold change /veh TPSAB1 /// TPSB2 (11721975_s_at) / RFU GSTM3 (11746129_a_at) / Fold change /veh GSTM3 (11746129_a_at) / RFU IL23R (11737362_x_at) / Fold change /veh IL23R (11737362_x_at) / RFU TMEM51 (11727254_a_at) / Fold change /veh TMEM51 (11727254_a_at) / RFU PIWIL2 (11732686_x_at) / Fold change /veh PIWIL2 (11732686_x_at) / RFU ORM1 (11744905_x_at) / Fold change /veh ORM1 (11744905_x_at) / RFU CCDC152 (11743942_at) / Fold change /veh CCDC152 (11743942_at) / RFU ECM1 (11717891_a_at) / Fold change /veh ECM1 (11717891_a_at) / RFU IL23R (11748794_a_at) / Fold change /veh IL23R (11748794_a_at) / RFU TNFAIP8L3 (11732012_x_at) / Fold change /veh TNFAIP8L3 (11732012_x_at) / RFU MBOAT4 (11741988_at) / Fold change /veh MBOAT4 (11741988_at) / RFU 11764193_at / Fold change /veh 11764193_at / RFU TMEM53 (11763286_at) / Fold change /veh TMEM53 (11763286_at) / RFU MAGEB2 (11727129_at) / Fold change /veh MAGEB2 (11727129_at) / RFU TMEM200A (11744735_a_at) / Fold change /veh TMEM200A (11744735_a_at) / RFU CCDC152 (11751479_a_at) / Fold change /veh CCDC152 (11751479_a_at) / RFU FAM211A (11726209_a_at) / Fold change /veh FAM211A (11726209_a_at) / RFU RGS16 (11746705_a_at) / Fold change /veh RGS16 (11746705_a_at) / RFU VCAN (11755009_s_at) / Fold change /veh VCAN (11755009_s_at) / RFU RHOB (11743442_s_at) / Fold change /veh RHOB (11743442_s_at) / RFU RGS16 (11720943_a_at) / Fold change /veh RGS16 (11720943_a_at) / RFU RGS16 (11720944_at) / Fold change /veh RGS16 (11720944_at) / RFU, VPS4B / Fold change vs veh, VPS4B / RFU, CREB1 / Fold change vs veh, CREB1 / RFU, DNAJC13 / Fold change vs veh, DNAJC13 / RFU, GNAQ / Fold change vs veh, GNAQ / RFU, CDK5R1 / Fold change vs veh, CDK5R1 / RFU, ZRANB3 / Fold change vs veh, ZRANB3 / RFU, CUL4A / Fold change vs veh, CUL4A / RFU, CCNY / Fold change vs veh, CCNY / RFU, UFL1 / Fold change vs veh, UFL1 / RFU, COG3 / Fold change vs veh, COG3 / RFU, DIAPH2 / Fold change vs veh, DIAPH2 / RFU, SKA2 / Fold change vs veh, SKA2 / RFU, AFF3 / Fold change vs veh, AFF3 / RFU, LMF1 / Fold change vs veh, LMF1 / RFU, IPO11 / Fold change vs veh, IPO11 / RFU, DFFB / Fold change vs veh, DFFB / RFU, FOXP1 / Fold change vs veh, FOXP1 / RFU, CARD8 / Fold change vs veh, CARD8 / RFU, STRN3 / Fold change vs veh, STRN3 / RFU, ADK / Fold change vs veh, ADK / RFU, RASSF2 / Fold change vs veh, RASSF2 / RFU, WIPF1 / Fold change vs veh, WIPF1 / RFU, LARP1B / Fold change vs veh, LARP1B / RFU, RASA1 / Fold change vs veh, RASA1 / RFU, RB1 / Fold change vs veh, RB1 / RFU, PPFIA1 / Fold change vs veh, PPFIA1 / RFU, MAT2A / Fold change vs veh, MAT2A / RFU, CCT5 / Fold change vs veh, CCT5 / RFU, WDR92 / Fold change vs veh, WDR92 / RFU, CUX1 / Fold change vs veh, CUX1 / RFU, TTC7A / Fold change vs veh, TTC7A / RFU, TMEM135 / Fold change vs veh, TMEM135 / RFU, DEPTOR / Fold change vs veh, DEPTOR / RFU, CPM / Fold change vs veh, CPM / RFU, DNAJB6 / Fold change vs veh, DNAJB6 / RFU, CACNA2D3 / Fold change vs veh, CACNA2D3 / RFU, DTX4 / Fold change vs veh, DTX4 / RFU, TFCP2 / Fold change vs veh, TFCP2 / RFU, GMCL1 /// GMCL1P1 / Fold change vs veh, GMCL1 /// GMCL1P1 / RFU, AEBP2 / Fold change vs veh, AEBP2 / RFU, SNHG1 /// SNORD22 /// SNORD25 /// SNORD26 /// SNORD27 /// SNORD28 /// SNORD29 /// SNORD31 / Fold change vs veh, SNHG1 /// SNORD22 /// SNORD25 /// SNORD26 /// SNORD27 /// SNORD28 /// SNORD29 /// SNORD31 / Fold change (Aza/veh), C12orf56 (ProbeSet 11735607_a_at) / Fold change (ACY-1035/veh), C12orf56 (ProbeSet 11735607_a_at) / Fold change (Aza/veh), FGFR1OP (ProbeSet 11751329_s_at) / Fold change (ACY-1035/veh), FGFR1OP (ProbeSet 11751329_s_at) / Fold change (Aza/veh), VPS36 (ProbeSet 11739960_a_at) / Fold change (ACY-1035/veh), VPS36 (ProbeSet 11739960_a_at) / RFU SYPL1 (11715823_x_at) / Fold change /veh SYPL1 (11715823_x_at) / RFU IGFBP7 (11715501_s_at) / Fold change /veh IGFBP7 (11715501_s_at) / RFU REEP3 (11722064_at) / Fold change /veh REEP3 (11722064_at) / RFU IGLL1 (11728026_x_at) / Fold change /veh IGLL1 (11728026_x_at): dose or concentration left out as unconfirmed
Settings: ProbeSet 11753623_s_at; LIST D

**Q.** `Nc1ncn([C@@H]2O[C@H](CO)[C@@H](O)[C@H]2O)c(=O)n1` [azacitidine] was tested. Which “Fold change vs veh, LOC101060439 /// RAP1B” value did it give?
**A.** 0.77
